Experiment [1] has as its target T1, recombinant human PGHS-2 (Homo sapiens, UniProt P35354).
T1 construct: made in house; host or cells: baculovirus/Sf9 insect cells (microsomes)
T1 sequence (P35354 18-604): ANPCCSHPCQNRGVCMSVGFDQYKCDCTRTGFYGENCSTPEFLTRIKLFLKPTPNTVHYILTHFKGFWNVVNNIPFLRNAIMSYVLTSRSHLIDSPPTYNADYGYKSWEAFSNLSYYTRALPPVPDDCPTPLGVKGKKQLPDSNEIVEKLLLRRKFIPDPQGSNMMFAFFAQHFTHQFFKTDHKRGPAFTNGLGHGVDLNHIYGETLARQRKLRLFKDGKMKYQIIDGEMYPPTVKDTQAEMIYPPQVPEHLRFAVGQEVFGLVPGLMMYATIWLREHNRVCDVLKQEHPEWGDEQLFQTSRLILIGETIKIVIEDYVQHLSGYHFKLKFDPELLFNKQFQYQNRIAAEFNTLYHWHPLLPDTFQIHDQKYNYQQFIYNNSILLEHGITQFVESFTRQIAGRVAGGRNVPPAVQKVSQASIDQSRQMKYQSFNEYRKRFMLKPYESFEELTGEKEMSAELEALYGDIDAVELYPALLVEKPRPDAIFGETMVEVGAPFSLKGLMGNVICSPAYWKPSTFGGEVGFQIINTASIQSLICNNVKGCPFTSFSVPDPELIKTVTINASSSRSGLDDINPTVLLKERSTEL
Nature of the experiment: Recombinant human PGHS-2 enzyme assay (PGE2 by EIA). Format: biochemical. As to conditions: for inhibition at 0.1 µM: 100 nM compound, microsomes, 60 min preincubation, 10 μM arachidonic acid, read-out: RHuPGHS-2 (% I @ 100 nM). Here is the method:
(§1) A compound of the invention dissolved in DMSO (3.3% v/v) was preincubated with microsomes from recombinant human PGHS-1 or PGHS-2 expressed in the baculovirus/Sf9 cell system (Gierse, J. K., Hauser, S. D., Greely, D. P., Koboldt, C., Rangwala, S., H., Isakson, P. C., and Seibert, K. "Expression and selective inhibition of the constitutive and inducible forms of cyclooxygenase", Biochem J. 305:479 (1995)), together with the cofactors phenol (2 mM) and hematin (1 μM) for 60 minutes prior to the addition of 10 μM arachidonic acid. The reaction was allowed to run for 2.5 minutes at room temperature prior to quenching with HCl and neutralization with NaOH. PGE2 production in the presence and absence of the drug was determined by EIA analysis.
(§2) EIA reagents for prostaglandin determination were purchased from Perseptive Diagnostics, Cambridge, Mass. PGE2 levels in lavage fluids were determined after the samples were dried under nitrogen and reconstituted with assay buffer. PGE2 levels in enzyme assays or cell culture media were measured against standards prepared in the same milieu. The immunoassays were conducted as recommended by the manufacturer. The EIA was conducted in 96 well microtiter plates (Nunc Roskilde, Denmark) and optical density measured using a microplate reader (Vmax, Molecular Devices Corp., Menlo Park, Calif.).

The target in experiment [2] is T2, recombinant human PGHS-1 (Homo sapiens, UniProt P23219).
T2 construct: made in house; host or cells: baculovirus/Sf9 insect cells (microsomes)
T2 sequence (P23219 24-599): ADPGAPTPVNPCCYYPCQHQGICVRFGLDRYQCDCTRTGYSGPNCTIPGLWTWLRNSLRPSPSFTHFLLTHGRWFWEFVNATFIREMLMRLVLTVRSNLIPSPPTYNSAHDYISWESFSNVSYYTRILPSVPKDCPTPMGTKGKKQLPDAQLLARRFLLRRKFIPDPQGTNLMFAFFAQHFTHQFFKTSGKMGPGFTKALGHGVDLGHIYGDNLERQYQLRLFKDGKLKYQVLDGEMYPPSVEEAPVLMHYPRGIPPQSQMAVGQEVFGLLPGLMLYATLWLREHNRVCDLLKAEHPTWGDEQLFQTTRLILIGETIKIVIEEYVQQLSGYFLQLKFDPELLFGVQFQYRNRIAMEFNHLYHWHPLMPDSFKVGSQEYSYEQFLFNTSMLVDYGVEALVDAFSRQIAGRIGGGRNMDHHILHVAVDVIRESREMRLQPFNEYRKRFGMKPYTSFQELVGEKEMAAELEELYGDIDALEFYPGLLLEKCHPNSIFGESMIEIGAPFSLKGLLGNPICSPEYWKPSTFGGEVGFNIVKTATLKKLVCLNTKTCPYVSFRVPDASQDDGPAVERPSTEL
Briefly: Recombinant human PGHS-1 enzyme assay (PGE2 by EIA). The settings on record: 100 μM compound; microsomes, 60 min preincubation, 10 μM arachidonic acid; read-out: RHuPGHS-1 (% I @ 100μM). The format is biochemical. As to the method: as §1, §2

For experiment [3], the system named is prostaglandin production in the pleural cavity. Nature of the experiment: Carrageenan induced pleurisy test (CIP). The format is in vivo, Sprague-Dawley rats. As to conditions: rats, 10 mg/kg oral, 30 minutes prior to intrapleural carrageenan; lavage four hours after. As to the method:
as §2
Inhibition of carrageenan induced pleurisy in rats was determined essentially as described by F. B. De Brito, (Pleurisy and Pouch Models of Acute Inflammation in Pharmalogical Methods in the Control of Inflammation, Eds, J. Y. Chang and A. J. Lewis, Alan Liss Inc., New York: 173-194, 1989) and Vinegar et al. ("Quantitative studies of the pathway to acute carrageenan inflammation", Fed. Proc., 35:2447-2456 (1976)). Briefly, eight Sprague-Dawley rats were orally dosed with 10 mg/kg of a compound of the invention 30 minutes prior to intrapleural injection of 2% lambda carrageenan (Sigma Chemical Co., St. Louis Mo.). Four hours after carrageenan injection, the animals were euthanized and their pleural cavities lavaged with ice cold saline. The lavage fluid was then added to two volumes of ice cold methanol (final methanol concentration 66%) to lyse cells and precipitate protein. Prostaglandin levels in the methanol/lavage fluid were then determined by EIA.

Molecules are shown by their SMILES.

As for `CS(=O)(=O)Nc1ccc([N+](=O)[O-])cc1Oc1ccc2sccc2c1` [Example 3, N-(4-Nitro-2-(benzothiophen-5'-yloxy)phenyl)methanesulfonamide], the inhibition at 0.1 µM in experiment [1] worked out at 59%. The inhibition at 100 µM in experiment [2] was 89%. Moreover, the “inhibition of prostaglandin production in the pleural cavity” value (“inhibition of prostaglandin production” below) in experiment [3] stood at 48%.

In the case of `CS(=O)(=O)Nc1ccc([N+](=O)[O-])cc1Oc1ccc2c(c1)OCO2` [Example 5, N-(4-Nitro-2-(1,3-benzodioxol-6-yloxy)phenyl)methanesulfonamide], in experiment [1], the “inhibitory potency against recombinant human PGHS-2 (in words)” value is on record as “most potent” and the inhibition at 0.1 µM was determined as 77%. In addition, the inhibition at 100 µM in experiment [2] came out at 89%. Besides, the “inhibition of prostaglandin production” value in experiment [3] is 36%.

With `CS(=O)(=O)Nc1ccc([N+](=O)[O-])cc1Oc1ccc2ncsc2c1` [Example 4], the inhibition at 0.1 µM in experiment [1] was 43%. In addition, the inhibition at 100 µM in experiment [2] turned out to be 31%. In addition, the “inhibition of prostaglandin production” value in experiment [3] was determined as 66%.

As for `CS(=O)(=O)Nc1ccc([N+](=O)[O-])cc1Oc1ccc2ccccc2c1` [Example 1, N(4-Nitro-2-(naphth-2'-yloxy)phenyl)methanesulfonamide], the inhibition at 0.1 µM in experiment [1] is 65%. The inhibition at 100 µM in experiment [2] turned out to be 47%.

As for `CS(=O)(=O)Nc1ccc([N+](=O)[O-])cc1Oc1ccc2cc(F)ccc2c1` [Example 2, N-(4-Nitro-2-(6'-fluoro-naphth-2'-yloxy)phenyl)methanesulfonamide], the inhibition at 0.1 µM in experiment [1] was determined as 56%. The inhibition at 100 µM in experiment [2] was 26%. The “inhibition of prostaglandin production” value in experiment [3] is listed as 20%.

The values above are taken from US5681842A, “Prostaglandin synthase-2 inhibitors” (Abbott Laboratories, priority 1996, dated 1997).
